Holding throughout (details): binder
Assay [1] addresses SRC (Homo sapiens, UniProt P12931).
Assay [2] concerns the target T1, ULK3 (Homo sapiens, UniProt Q6PHR2).
T1 sequence (Q6PHR2 1-472): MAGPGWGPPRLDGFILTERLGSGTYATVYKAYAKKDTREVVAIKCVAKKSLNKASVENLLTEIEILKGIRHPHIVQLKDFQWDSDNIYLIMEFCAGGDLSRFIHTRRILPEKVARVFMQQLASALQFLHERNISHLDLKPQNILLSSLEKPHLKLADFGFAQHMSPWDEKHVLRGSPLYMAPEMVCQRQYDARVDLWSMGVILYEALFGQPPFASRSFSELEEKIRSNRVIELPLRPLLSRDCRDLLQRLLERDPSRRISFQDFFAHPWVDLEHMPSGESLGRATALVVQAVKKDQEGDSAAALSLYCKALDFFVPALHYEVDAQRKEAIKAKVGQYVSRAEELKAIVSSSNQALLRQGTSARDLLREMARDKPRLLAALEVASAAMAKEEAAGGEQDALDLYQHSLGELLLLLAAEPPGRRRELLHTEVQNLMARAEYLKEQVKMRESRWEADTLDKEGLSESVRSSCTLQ

Assay [3] concerns the target T2, VRK1 (Homo sapiens, UniProt Q99986).
T2 sequence (Q99986 1-396): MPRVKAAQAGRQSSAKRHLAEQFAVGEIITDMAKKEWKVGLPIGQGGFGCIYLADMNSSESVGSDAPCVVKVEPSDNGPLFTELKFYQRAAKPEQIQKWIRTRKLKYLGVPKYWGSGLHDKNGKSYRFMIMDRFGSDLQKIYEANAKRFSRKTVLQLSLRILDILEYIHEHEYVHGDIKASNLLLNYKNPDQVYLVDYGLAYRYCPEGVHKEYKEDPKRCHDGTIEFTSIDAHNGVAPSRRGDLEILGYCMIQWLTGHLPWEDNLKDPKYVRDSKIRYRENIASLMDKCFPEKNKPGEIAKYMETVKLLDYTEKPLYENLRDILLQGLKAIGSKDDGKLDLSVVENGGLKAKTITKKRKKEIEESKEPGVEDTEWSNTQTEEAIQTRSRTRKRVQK

In assay [4] the target is T3, MST1 (Homo sapiens, UniProt Q13043).
T3 sequence (Q13043 1-487): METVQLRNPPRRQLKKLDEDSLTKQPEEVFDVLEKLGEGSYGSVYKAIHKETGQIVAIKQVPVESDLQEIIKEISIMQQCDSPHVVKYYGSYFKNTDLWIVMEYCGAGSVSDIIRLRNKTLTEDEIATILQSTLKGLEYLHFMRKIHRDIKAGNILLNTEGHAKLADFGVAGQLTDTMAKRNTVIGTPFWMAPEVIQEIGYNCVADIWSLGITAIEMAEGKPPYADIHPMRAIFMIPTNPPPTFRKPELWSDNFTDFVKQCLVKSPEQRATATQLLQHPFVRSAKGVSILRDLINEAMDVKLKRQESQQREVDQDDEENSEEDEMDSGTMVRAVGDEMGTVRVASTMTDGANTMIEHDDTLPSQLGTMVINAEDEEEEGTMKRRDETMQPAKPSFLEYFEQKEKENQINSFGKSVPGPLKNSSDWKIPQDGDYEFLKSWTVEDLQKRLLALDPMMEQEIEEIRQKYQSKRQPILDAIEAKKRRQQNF

Assay [5] deals with T4, MST2 (Homo sapiens, UniProt Q13188).
T4 sequence (Q13188 1-491): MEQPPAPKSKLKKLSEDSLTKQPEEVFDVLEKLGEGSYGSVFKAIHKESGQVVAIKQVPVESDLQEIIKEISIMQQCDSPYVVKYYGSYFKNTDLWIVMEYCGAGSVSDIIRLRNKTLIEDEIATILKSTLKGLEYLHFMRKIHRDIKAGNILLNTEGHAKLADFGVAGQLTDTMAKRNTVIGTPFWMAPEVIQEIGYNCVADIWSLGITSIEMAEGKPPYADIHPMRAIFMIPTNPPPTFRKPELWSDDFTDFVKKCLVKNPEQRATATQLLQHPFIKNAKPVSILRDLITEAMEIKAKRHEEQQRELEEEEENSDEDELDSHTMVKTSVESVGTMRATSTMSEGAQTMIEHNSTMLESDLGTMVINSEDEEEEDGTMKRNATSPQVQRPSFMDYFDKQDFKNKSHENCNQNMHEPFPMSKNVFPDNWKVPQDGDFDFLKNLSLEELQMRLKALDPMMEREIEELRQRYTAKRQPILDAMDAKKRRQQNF

For assay [6], the target named is MST3 (Homo sapiens, UniProt Q9Y6E0).
MST3, sequence (Q9Y6E0 whole entry): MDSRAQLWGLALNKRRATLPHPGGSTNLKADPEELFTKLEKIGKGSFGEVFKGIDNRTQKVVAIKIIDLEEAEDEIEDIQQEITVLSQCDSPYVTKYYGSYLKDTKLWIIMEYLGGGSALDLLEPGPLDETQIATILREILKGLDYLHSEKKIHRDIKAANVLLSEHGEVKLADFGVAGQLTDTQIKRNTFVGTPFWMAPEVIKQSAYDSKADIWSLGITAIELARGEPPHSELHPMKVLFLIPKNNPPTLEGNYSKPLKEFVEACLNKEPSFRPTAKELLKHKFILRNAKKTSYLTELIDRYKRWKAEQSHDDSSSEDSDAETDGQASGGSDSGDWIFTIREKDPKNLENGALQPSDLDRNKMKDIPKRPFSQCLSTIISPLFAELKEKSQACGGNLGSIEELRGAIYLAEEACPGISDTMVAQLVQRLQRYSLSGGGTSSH
The target in assay [7] is MST4 (Homo sapiens, UniProt Q9P289).
MST4, sequence (Q9P289 whole entry): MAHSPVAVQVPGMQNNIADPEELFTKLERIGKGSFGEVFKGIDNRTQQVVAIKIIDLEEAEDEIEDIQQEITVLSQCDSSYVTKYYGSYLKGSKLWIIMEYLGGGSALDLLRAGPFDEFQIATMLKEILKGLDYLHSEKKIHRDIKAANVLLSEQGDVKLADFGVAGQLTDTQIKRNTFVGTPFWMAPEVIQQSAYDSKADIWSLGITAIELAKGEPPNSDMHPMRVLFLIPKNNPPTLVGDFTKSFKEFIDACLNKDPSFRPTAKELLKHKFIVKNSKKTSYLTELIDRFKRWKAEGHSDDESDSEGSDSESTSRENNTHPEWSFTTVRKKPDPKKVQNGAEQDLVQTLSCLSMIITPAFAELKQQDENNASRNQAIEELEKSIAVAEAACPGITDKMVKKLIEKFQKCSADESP
The target in assay [8] is PAK1 (Homo sapiens, UniProt Q13153).
PAK1, sequence (Q13153 whole entry): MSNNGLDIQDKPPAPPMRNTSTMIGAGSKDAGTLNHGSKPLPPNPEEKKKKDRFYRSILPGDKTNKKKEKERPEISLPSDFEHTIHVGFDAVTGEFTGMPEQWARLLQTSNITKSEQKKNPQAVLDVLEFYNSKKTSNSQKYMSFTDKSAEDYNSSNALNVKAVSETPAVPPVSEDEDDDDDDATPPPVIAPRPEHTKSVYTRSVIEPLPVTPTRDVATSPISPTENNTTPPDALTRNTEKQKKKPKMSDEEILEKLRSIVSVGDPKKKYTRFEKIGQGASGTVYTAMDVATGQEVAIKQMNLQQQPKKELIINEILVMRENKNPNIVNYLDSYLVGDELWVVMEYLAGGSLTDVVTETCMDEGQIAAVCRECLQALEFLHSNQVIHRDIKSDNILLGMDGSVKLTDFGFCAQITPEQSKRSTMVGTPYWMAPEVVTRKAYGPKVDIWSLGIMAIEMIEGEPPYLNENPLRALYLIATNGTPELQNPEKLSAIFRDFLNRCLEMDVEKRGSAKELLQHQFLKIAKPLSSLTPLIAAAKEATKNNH

SRC, sequence (P12931 whole entry): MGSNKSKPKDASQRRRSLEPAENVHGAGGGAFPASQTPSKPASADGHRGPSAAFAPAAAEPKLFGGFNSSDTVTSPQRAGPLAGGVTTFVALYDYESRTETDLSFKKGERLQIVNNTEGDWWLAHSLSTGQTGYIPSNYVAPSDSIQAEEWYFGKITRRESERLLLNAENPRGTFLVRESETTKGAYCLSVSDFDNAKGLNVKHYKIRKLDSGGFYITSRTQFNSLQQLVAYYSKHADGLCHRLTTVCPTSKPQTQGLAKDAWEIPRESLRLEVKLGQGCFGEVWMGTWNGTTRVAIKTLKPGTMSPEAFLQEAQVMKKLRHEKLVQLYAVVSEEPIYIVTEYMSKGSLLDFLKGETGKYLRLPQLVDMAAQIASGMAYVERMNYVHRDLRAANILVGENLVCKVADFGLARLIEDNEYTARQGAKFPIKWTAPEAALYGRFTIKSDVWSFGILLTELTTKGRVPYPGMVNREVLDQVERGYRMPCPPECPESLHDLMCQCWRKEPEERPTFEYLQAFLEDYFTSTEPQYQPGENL

For the molecule `Cc1cccc(-c2ccc(-c3cc4cnc(NCCCN5CCNCC5)nc4n(CCCCN)c3=O)c(Cl)c2)n1` [compound 29, 8-(4-Aminobutyl)-6-(2-chloro-4-(6-methylpyridin-2-yl)phenyl)-2-((3-(piperazin-1-yl)propyl)amino)pyrido[2,3-d]pyrimidin-7(8H)-one], the entries for the “ΔTm 29” value in assay [1], in assay [2] and in assay [3] were 1.9 °C, 5.8 °C and 0.4 °C, respectively. Besides, the “dTm MST1” value in assay [4] is 3.1 °C. Besides, the “dTm MST2” value in assay [5] worked out at 5.2 °C. Further, the “dTm MST3” value in assay [6] amounted to 13.0 °C. For the same molecule, the “dTm MST4” value in assay [7] was 8.9 °C. Also, in assay [8], the “dTm PAK1” value turned out to be 5.0 °C.
With `Cc1cccc(-c2ccc(-c3cc4cnc(Nc5ccc(CCCO)cc5)nc4n(CCCCN)c3=O)c(Cl)c2)n1` [compound 30, 8-(4-Aminobutyl)-6-(2-chloro-4-(6-methylpyridin-2-yl)phenyl)-2-((4-(3-hydroxypropyl)phenyl)amino)pyrido[2,3-d]pyrimidin-7(8H)-one], the “ΔTm 30” value in assay [1] was 4.6 °C; in assay [2] it was 14.9 °C; in assay [3], 0.3 °C. Moreover, in assay [4], the “dTm MST1” value came to 8.7 °C. Also, the “dTm MST2” value in assay [5] was determined as 15.8 °C. In addition, the “dTm MST3” value in assay [6] came to 16.7 °C. In addition, the “dTm MST4” value in assay [7] amounted to 15.3 °C. The “dTm PAK1” value in assay [8] stood at 9.1 °C.
Regarding `Cc1cccc(-c2ccc(-c3cc4cnc(NC(CO)CO)nc4n(CCCCN)c3=O)c(Cl)c2)n1` [compound 24, 8-(4-Aminobutyl)-6-(2-chloro-4-(6-methylpyridin-2-yl)phenyl)-2-((1,3-dihydroxypropan-2-yl)amino)pyrido[2,3-d]pyrimidin-7(8H)-one], the entries for the “ΔTm MR24 (24)” value in assay [1], in assay [2] and in assay [3] were 0.0 °C, 7.2 °C and 0.4 °C, respectively. Moreover, in assay [4], the “dTm MST1” value was determined as 2.1 °C. The “dTm MST2” value in assay [5] came out at 4.6 °C. Moreover, the “dTm MST3” value in assay [6] is 10.6 °C. For the same molecule, the “dTm MST4” value in assay [7] turned out to be 8.1 °C. The “dTm PAK1” value in assay [8] is 5.1 °C.
`Cc1cccc(-c2ccc(-c3cc4cnc(NCCCN5CCOCC5)nc4n(CCCCN)c3=O)c(Cl)c2)n1` [compound 26, MR26]: the “ΔTm MR26 (26)” value in assay [1] came out at 1.4 °C; in assay [2] it was 6.7 °C; in assay [3], 0.4 °C. In addition, in assay [4], the “dTm MST1” value came to 3.6 °C. In assay [5], the “dTm MST2” value came out at 5.9 °C. In assay [6], the “dTm MST3” value is 11.6 °C. Further, the “dTm MST4” value in assay [7] came to 10.6 °C. The “dTm PAK1” value in assay [8] was 4.1 °C.
For the molecule `Cc1cccc(-c2ccc(-c3cc4cnc(NCCCN5CCCC5=O)nc4n(CCCCN)c3=O)c(Cl)c2)n1` [compound 27, MR30], the figures for the “ΔTm MR30 (27)” value in assay [1], in assay [2] and in assay [3] were -0.5 °C, 7.3 °C and -0.1 °C, respectively. Moreover, the “dTm MST1” value in assay [4] was determined as 1.1 °C. Besides, in assay [5], the “dTm MST2” value came out at 2.2 °C. Moreover, in assay [6], the “dTm MST3” value is 10.6 °C. Besides, in assay [7], the “dTm MST4” value turned out to be 7.5 °C. For the same molecule, the “dTm PAK1” value in assay [8] was 3.6 °C.

Source of the values: paper doi:10.1101/2023.11.24.568596v1 (biorxiv, 2023).
